Read-outs that look alike come from different tables or passages of the source.
How the values were obtained:
PR = assay: Uterine wet weight assay (PR agonist effectiveness); assay type: in vivo, Sprague-Dawely rats; settings: for effect on uterine wet weight: co-administered with estrone, doses of 0.3 mg, 1.0 mg, and 3.0 mg/rat
Text: J. Obstet. […] R.I. Dorfman, Academic Press, New York, New York, pp101-130 (1969), the disclosures of which are herein incorporated by reference. Four to five week old, ovariectomized, Sprague-Dawely rats (Harlan-Sprague-Dawely, Indianapolis, IN) were obtained 1 week after surgery and allowed to acclimate for an additional week after shipment.

human PR-B [1] = molecular target: T1, human PR-B (Homo sapiens, UniProt P06401); assay: Co-transfection assay, PR agonist activity; assay type: cell-based; settings: for Emax: CV-1, read-out: PR Agonist CV-1 Cells Efficacy (%);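 for all read-outs here: CV-1 cells (African green monkey kidney) co-transfected with receptor plasmid and hormone-responsive firefly luciferase reporter, agonism read as compound-dependent rise in luciferase signal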
T1 construct: expressed in transfected cells; host or cells: CV-1 cells (African green monkey kidney fibroblasts), transient transfection
T1 sequence (P06401 1-933): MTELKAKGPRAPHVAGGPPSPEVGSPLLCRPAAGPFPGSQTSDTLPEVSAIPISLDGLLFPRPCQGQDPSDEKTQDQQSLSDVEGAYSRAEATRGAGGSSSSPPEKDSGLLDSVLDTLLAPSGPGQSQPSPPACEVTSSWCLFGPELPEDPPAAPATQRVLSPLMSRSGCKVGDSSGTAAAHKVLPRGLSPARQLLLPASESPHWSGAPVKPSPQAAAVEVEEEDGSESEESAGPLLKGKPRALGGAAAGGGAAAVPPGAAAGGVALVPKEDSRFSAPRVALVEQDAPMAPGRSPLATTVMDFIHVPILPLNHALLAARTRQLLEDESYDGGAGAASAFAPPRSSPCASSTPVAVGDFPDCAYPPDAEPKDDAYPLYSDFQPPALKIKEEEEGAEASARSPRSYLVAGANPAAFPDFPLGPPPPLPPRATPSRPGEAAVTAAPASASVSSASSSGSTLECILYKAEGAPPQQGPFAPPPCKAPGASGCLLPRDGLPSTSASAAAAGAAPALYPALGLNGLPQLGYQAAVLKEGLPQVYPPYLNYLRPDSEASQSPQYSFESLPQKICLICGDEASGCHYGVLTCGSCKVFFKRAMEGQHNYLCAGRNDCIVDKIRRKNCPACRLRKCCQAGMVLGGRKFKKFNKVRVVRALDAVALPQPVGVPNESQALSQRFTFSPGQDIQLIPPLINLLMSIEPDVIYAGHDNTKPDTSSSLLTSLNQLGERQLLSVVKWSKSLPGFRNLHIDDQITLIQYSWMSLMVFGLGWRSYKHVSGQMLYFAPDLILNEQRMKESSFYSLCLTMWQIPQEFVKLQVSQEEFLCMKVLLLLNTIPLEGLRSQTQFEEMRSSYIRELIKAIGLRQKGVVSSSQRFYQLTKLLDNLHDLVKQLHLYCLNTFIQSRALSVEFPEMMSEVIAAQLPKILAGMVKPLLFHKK

MR = molecular target: T2, MR (Homo sapiens, UniProt P08235); assay: Co-transfection assay, MR antagonist activity; assay type: cell-based; settings: for Emax: CV-1, read-out: MR Antagonist CV-1 Cells Efficacy (%)
T2 construct: expressed in transfected cells; host or cells: CV-1 cells, transient transfection
T2 sequence (P08235 1-984): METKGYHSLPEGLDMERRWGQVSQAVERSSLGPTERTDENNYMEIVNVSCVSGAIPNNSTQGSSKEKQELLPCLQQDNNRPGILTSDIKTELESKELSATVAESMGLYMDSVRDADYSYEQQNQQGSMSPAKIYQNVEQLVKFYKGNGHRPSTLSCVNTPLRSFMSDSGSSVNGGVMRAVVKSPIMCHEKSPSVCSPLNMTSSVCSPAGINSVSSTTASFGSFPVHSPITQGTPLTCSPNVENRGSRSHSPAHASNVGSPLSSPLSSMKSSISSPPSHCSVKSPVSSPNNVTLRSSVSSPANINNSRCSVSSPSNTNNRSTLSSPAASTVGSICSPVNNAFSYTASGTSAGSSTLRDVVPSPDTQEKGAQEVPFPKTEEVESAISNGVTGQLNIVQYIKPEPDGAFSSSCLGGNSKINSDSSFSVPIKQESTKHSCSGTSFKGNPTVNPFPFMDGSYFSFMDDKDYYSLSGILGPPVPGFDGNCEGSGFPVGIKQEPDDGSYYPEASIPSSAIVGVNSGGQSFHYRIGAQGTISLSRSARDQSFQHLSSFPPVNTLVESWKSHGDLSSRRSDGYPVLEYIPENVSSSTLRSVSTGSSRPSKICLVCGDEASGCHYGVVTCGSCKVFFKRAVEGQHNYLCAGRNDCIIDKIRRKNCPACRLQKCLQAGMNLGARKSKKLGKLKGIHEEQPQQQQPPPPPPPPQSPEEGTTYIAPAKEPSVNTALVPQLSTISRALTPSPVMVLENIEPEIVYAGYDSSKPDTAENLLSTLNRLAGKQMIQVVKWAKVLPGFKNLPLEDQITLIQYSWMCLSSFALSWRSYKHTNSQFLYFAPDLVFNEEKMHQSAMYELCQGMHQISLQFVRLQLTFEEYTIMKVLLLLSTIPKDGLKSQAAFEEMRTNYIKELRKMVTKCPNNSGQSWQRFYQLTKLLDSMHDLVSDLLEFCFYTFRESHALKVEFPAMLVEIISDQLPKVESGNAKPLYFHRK

human PR-B [2] = molecular target: T1, human PR-B; assay: Co-transfection assay, PR antagonist activity; assay type: cell-based; settings: for Emax: CV-1, read-out: PR Antagonist CV-1 Cells Efficacy (%);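 for all read-outs here: monkey kidney fibroblasts co-transfected with receptor expression plasmid and hormone-responsive luciferase reporter, antagonism read as reduced luciferase signal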
AR = molecular target: T3, AR (Homo sapiens, UniProt P10275); assay: Co-transfection assay, AR antagonist activity; assay type: cell-based
T3 construct: expressed in transfected cells; host or cells: CV-1 cells, transient transfection

GR = molecular target: T4, GR (Homo sapiens, UniProt P04150); assay: Co-transfection assay, GR antagonist activity; assay type: cell-based; settings: for Emax: CV-1, read-out: GR Antagonist CV-1 Cells Efficacy (%)
T4 construct: expressed in transfected cells; host or cells: CV-1 cells, transient transfection
T4 sequence (P04150 1-777): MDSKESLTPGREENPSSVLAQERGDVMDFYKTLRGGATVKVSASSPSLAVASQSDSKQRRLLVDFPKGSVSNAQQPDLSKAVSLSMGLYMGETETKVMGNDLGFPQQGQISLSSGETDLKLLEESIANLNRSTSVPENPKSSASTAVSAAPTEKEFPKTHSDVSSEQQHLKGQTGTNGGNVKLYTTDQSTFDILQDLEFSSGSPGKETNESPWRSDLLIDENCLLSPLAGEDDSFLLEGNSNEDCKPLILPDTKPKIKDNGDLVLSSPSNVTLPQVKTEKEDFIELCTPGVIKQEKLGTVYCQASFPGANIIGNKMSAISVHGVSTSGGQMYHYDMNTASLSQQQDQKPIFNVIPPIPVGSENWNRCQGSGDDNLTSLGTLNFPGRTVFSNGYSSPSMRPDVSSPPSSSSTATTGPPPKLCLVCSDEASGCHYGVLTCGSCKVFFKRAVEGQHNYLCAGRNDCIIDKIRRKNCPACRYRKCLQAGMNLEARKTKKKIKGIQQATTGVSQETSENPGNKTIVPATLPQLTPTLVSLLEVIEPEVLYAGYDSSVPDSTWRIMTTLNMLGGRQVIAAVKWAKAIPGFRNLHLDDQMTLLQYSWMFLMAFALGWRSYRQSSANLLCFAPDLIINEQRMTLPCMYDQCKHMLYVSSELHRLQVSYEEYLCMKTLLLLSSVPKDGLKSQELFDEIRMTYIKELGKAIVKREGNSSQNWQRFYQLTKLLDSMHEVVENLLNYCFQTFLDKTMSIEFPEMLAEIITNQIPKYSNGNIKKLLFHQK

ER [3] = molecular target: T5, ER (Homo sapiens, UniProt P03372); assay: Co-transfection assay, ER antagonist activity; assay type: cell-based; settings: for ER Antagonist CV-1 Cells Efficacy (%): percent maximal inhibition, estradiol at its EC50
T5 construct: expressed in transfected cells; host or cells: CV-1 cells, transient transfection, with MTV-ERE5-LUC reporter

ER [4] = molecular target: T5, ER; assay: Co-transfection assay, ER agonist activity; assay type: cell-based; settings: for Emax: CV-1, read-out: ER Agonist CV-1 Cells Efficacy (%)

T3 sequence (P10275 whole entry): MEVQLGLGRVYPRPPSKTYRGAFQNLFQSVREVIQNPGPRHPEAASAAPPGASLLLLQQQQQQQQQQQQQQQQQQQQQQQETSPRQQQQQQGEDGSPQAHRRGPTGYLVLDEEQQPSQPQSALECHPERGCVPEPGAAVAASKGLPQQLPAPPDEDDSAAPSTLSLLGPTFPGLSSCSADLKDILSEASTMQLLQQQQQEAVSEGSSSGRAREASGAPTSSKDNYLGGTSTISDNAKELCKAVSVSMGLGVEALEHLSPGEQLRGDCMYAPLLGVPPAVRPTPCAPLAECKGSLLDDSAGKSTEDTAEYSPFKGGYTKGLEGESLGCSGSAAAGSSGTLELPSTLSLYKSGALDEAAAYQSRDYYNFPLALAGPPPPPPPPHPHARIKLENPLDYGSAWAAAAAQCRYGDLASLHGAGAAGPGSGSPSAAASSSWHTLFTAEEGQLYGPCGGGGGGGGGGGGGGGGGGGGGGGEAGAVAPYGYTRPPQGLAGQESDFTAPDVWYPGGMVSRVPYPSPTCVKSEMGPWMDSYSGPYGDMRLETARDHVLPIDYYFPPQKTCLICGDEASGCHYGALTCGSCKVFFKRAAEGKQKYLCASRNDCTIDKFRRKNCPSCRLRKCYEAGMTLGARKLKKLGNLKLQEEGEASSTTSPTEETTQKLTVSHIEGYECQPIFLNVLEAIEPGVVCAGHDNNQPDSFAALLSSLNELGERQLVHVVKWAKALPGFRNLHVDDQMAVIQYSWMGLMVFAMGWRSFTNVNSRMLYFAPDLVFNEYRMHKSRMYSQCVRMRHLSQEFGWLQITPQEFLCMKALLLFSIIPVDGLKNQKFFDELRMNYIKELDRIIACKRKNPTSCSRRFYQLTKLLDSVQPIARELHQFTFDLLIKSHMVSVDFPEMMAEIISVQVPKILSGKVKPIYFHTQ
T5 sequence (P03372 whole entry): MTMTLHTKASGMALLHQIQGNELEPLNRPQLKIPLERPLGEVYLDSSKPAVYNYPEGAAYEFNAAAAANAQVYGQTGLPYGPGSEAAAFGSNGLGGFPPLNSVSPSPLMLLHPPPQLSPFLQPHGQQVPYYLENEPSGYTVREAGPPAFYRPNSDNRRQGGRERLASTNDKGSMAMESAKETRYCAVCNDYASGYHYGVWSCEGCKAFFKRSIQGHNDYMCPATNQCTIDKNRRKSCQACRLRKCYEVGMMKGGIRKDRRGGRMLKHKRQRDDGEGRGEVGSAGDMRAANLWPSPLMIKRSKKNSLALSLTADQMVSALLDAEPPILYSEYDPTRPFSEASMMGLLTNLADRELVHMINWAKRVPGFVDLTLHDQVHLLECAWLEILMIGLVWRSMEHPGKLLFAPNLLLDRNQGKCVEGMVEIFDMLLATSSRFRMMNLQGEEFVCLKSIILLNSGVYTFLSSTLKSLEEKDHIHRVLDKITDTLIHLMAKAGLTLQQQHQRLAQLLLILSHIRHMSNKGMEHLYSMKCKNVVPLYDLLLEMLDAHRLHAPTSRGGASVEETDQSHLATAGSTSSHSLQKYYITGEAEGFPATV

Compound: CC(=O)O[C@]1(C(C)=O)CC[C@H]2[C@@H]3C[C@H](C)C4=CC(=O)CC[C@]4(C)[C@H]3CC[C@@]21C [MPA, medroxyprogesterone acetate, reference compound]
- effect on uterine wet weight (PR): significantly decreased the uterine wet weight

Compound: CC1=CC(C)(C)Nc2ccc3c(c21)C(c1ccsc1)Oc1ccccc1-3 (racemic) [Compound 170, (R/S)-1,2-Dihydro-2,2,4-trimethyl-5-(thiophen-3-yl)-5H-chromeno[3,4-f]quinoline]
- EC50 (human PR-B [1]): 73 nM
- Emax (MR): 84%
- IC50 (human PR-B [2]): 145 nM
- IC50 (AR): 290 nM
- Emax (GR): 94%
- IC50 (ER [3]): 580 nM
- ER Antagonist CV-1 Cells Efficacy (%) (ER [3]): 78%

Compound: CC(C)(O)C(=O)Nc1ccc([N+](=O)[O-])c(C(F)(F)F)c1 [Flut]
- EC50 (ER [4]): > 10 µM
- IC50 (ER [3]): > 10000 nM

Compound: C[C@]12CC[C@@H]3c4ccc(O)cc4CC[C@H]3[C@@H]1CCC2=O [estrone, reference compound]
- Mean Uterine Wet Weight (PR; estrone 10 µg/day subcutaneous alone, three days, ovariectomized rats): 205 mg
- increase of uterine wet weight over control treated animals (PR; estrone alone): 4 fold

Compound: CCCCC1Oc2ccc(F)cc2-c2ccc3c(c21)C(C)=CC(C)(C)N3 (racemic) [Compound 210, (R/S)-5-Butyl-9-fluoro-1,2-dihydro-2,2,4-trimethyl-5H-chromeno[3,4-f]quinoline]
- effect on uterine wet weight (PR): decreased by approximately half

Compound: CC1=CC(C)(C)Nc2ccc3c(c21)C(c1cccc(C(F)(F)F)c1)Oc1ccccc1-3 (racemic) [Compound 195, (R/S) 1,2-Dihydro-2,2,4-trimethyl-5-[3-(trifluoromethyl)phenyl]-5H-chromeno[3,4-f]quinoline]
- Emax (ER [4]): 90%
- Emax (human PR-B [1]): 89%
- Emax (MR): 47%
- Emax (human PR-B [2]): < 20%
- IC50 (AR): 470 nM
- Emax (GR): 96%
- IC50 (ER [3]): 4410 nM
- ER Antagonist CV-1 Cells Efficacy (%) (ER [3]): 68%

Compound: C=C1CC(C)(C)Nc2ccc3c(c21)C(c1cccc(F)c1)Oc1ccccc1-3 (racemic) [Compound 192, (R/S)-5-(3-Fluorophenyl)-1,2,3,4-tetrahydro-2,2-dimethyl-4-methylidene-5H-chromeno[3,4-f]quinoline]
- EC50 (ER [4]): > 10 µM
- Emax (ER [4]): < 20%
- EC50 (human PR-B [1]): > 10000 nM
- Emax (MR): 70%
- IC50 (human PR-B [2]): 89 nM
- IC50 (AR): 79 nM
- Emax (GR): 81%
- IC50 (ER [3]): 195 nM
- ER Antagonist CV-1 Cells Efficacy (%) (ER [3]): 80%

Compound: CCCCN(C)C(=O)CCCCCCCCCC[C@@H]1Cc2cc(O)ccc2[C@H]2CC[C@]3(C)[C@@H](O)CC[C@H]3[C@H]12 [ICI 164, N-butyl-3,17-dihydroxy-N-methyl-(7-alpha, 17-beta)-estra-1,3,5(10)-triene-7-undecanamide, reference compound]
- Emax (ER [4]): < 20%
- ER Antagonist CV-1 Cells Efficacy (%) (ER [3]): 99%

Compound: CC1=CC(C)(C)Nc2ccc3c(c21)C(c1ccc(C)cc1)Oc1ccccc1-3 (racemic) [Compound 167, (R/S)-1,2-Dihydro-2,2,4-trimethyl-5-(4-methylphenyl)-5H-chromeno[3,4-f]quinoline]
- Emax (MR): 61%
- Emax (GR): 96%

Compound: CC(=O)S[C@@H]1CC2=CC(=O)CC[C@]2(C)[C@H]2CC[C@@]3(C)[C@@H](CC[C@@]34CCC(=O)O4)[C@H]12 [Spir, 7-alpha-[acetylthio]-17-alpha-hydroxy-3-oxopregn-4-ene-21-carboxylic acid gamma-lactone, reference compound]
- Emax (MR): 96%
- Emax (GR): 80%

Compound: CC1=CC(C)(C)Nc2ccc3c(c21)C(c1ccccc1)Oc1ccccc1-3 (racemic) [Compound 161, (R/S)-1,2-Dihydro-2,2,4-trimethyl-5-phenyl-5H-chromeno[3,4-f]quinoline]
- Emax (human PR-B [1]): 47%
- Emax (MR): 58%
- Emax (human PR-B [2]): 75%
- Emax (GR): 97%

Compound: CC#C[C@]1(O)CC[C@H]2[C@@H]3CCC4=CC(=O)CCC4=C3[C@@H](c3ccc(N(C)C)cc3)C[C@@]21C [RU486, (11beta, 17beta)-11-[4-(dimethylamino)phenyl]-17-hydroxy-17-(1-propynyl)estra-4,9-dien-3-one, reference compound]
- Emax (human PR-B [1]): < 20%
- Emax (MR): 77%
- Emax (GR): 100%

Compound: 8-Fluoro-1,2-dihydro-2,2,4-trimethylindeno[1,2-g]quinoline [Compound 124]
- EC50 (ER [4]; Table 5 overall potency, co-transfection assay, read-out: ER Potency Agon): 2.1 µM
- IC50 (MR; Table 5 overall potency, co-transfection assay, read-out: MR Potency Antag): > 10 µM
- IC50 (GR; Table 5 overall potency, co-transfection assay, read-out: GR Potency Antag): > 10 µM
- IC50 (ER [3]; Table 5 overall potency, co-transfection assay, read-out: ER Potency Antag): > 10000 nM

— patent EP1382597A2, “Steroid receptor modulator compounds and methods” (LIGAND PHARMACEUTICALS, INC., priority 1994, dated 1996)
